Test results as given in ChEMBL document CHEMBL1136320, “Substrate properties of C5-substituted pyrimidine 2'-deoxynucleoside 5'-triphosphates for thermostable DNA polymerases during PCR” (Bioorg Med Chem Lett, 2003).

What was measured:
[1] = test system: Nucleic Acid; test: Amount of full-length DNA product formed using polymerase B Vent (exo); range is 35-70%; assay type: nucleic-acid assay
[2] = test system: Nucleic Acid; test: Amount of full-length DNA product formed using polymerase A Thermo Sequenase; No product detected; assay type: nucleic-acid assay
[3] = test system: Nucleic Acid; test: Amount of full-length DNA product formed using polymerase B Pwo; range is 35-70%; assay type: nucleic-acid assay
[4] = test system: Nucleic Acid; test: Amount of full-length DNA product formed using polymerase A Tth; No product detected; assay type: nucleic-acid assay
[5] = test system: Nucleic Acid; test: Amount of full-length DNA product formed using polymerase B Pfu; assay type: nucleic-acid assay
[6] = test system: Nucleic Acid; test: Amount of full-length DNA product formed using polymerase B Deep vent (exo); assay type: nucleic-acid assay
[7] = test system: Nucleic Acid; test: Amount of full-length DNA product formed using Taq polymerase; No product detected; assay type: functional
[8] = test system: Nucleic Acid; test: Amount of full-length DNA product formed using polymerase B Vent (exo); No product detected; assay type: nucleic-acid assay
[9] = test system: Nucleic Acid; test: Amount of full-length DNA product formed using polymerase B Pwo; No product detected; assay type: nucleic-acid assay
[10] = test system: Nucleic Acid; test: Amount of full-length DNA product formed using polymerase B Pfu; No product detected; assay type: nucleic-acid assay
[11] = test system: Nucleic Acid; test: Amount of full-length DNA product formed using polymerase B Deep vent (exo); No product detected; assay type: nucleic-acid assay
[12] = test system: Nucleic Acid; test: Amount of full-length DNA product formed using polymerase B Pwo; assay type: nucleic-acid assay

| SMILES | Activity [1] | Activity [2] | Activity [3] | Activity [4] | Activity [5] | Activity [6] | Activity [7] | Activity [8] | Activity [9] | Activity [10] | Activity [11] | Activity [12] |
| --- | --- | --- | --- | --- | --- | --- | --- | --- | --- | --- | --- | --- |
| NCCOCCOCc1cn(C2CC(O)C(COP(=O)(O)OP(=O)(O)OP(=O)(O)O)O2)c(=O)nc1N (stereo unspecified) | 35% | Not detected | 35% | Not detected | < 35% | < 35% | Not detected |  |  |  |  |  |
| CC#Cc1cn(C2CC(O)C(COP(=O)(O)OP(=O)(O)OP(=O)(O)O)O2)c(=O)nc1N (stereo unspecified) |  | Not detected |  | Not detected |  |  | Not detected | Not detected | Not detected | Not detected | Not detected |  |
| NCCOCCOCc1cn(C2CC(O)C(COP(=O)(O)OP(=O)(O)OP(=O)(O)O)O2)c(=O)[nH]c1=O (stereo unspecified) | 35% | Not detected |  | Not detected | < 35% | < 35% | Not detected |  |  |  |  | < 35% |
